Reference: paper PMC7181660, “A novel specific PERK activator reduces toxicity and extends survival in Huntington's disease models” (Scientific Reports, 2020)

How the values were obtained:
Experiment in all cases: biochemical
Type in all cases: biochemical
[1] = target: panel of 391 kinases (Homo sapiens, UniProt Q16620); settings: TRKB, MK-28 1 µM, ATP 1 µM
[2] = target: panel of 391 kinases (Homo sapiens, UniProt Q15118); settings: kinase PDK1/PDHK1, compound at 1 µM, single dose in duplicates, 1 µM ATP
[3] = target: panel of 391 kinases (Homo sapiens, UniProt P52564); settings: MKK6, MK-28 1 µM, ATP 1 µM
[4] = target: panel of 391 kinases (Homo sapiens, UniProt P27448); settings: MARK3, MK-28 1 µM, ATP 1 µM
[5] = target: panel of 391 kinases (Homo sapiens, UniProt Q9HBY8); settings: SGK2, MK-28 1 µM, ATP 1 µM
[6] = target: panel of 391 kinases (Homo sapiens, UniProt P09769); settings: FGR, MK-28 1 µM, ATP 1 µM
[7] = target: panel of 391 kinases (Homo sapiens, UniProt Q9NRM7); settings: LATS2, MK-28 1 µM, ATP 1 µM
[8] = target: panel of 391 kinases (Homo sapiens, UniProt Q9BUB5); settings: MNK1, MK-28 1 µM, ATP 1 µM
[9] = target: panel of 391 kinases (Homo sapiens, UniProt Q9UM73); settings: ALK, MK-28 1 µM, ATP 1 µM
[10] = target: panel of 391 kinases (Homo sapiens, UniProt Q9HAZ1); settings: CLK4, MK-28 1 µM, ATP 1 µM
[11] = target: panel of 391 kinases (Homo sapiens, UniProt Q56UN5); settings: YSK4/MAP3K19, MK-28 1 µM, ATP 1 µM
[12] = target: panel of 391 kinases (Homo sapiens, UniProt O43353); settings: RIPK2, MK-28 1 µM, ATP 1 µM
[13] = target: panel of 391 kinases (Homo sapiens, UniProt Q15831); settings: LKB1, MK-28 1 µM, ATP 1 µM
[14] = target: panel of 391 kinases (Homo sapiens, UniProt Q9Y2K2); settings: SIK3, MK-28 1 µM, ATP 1 µM
[15] = target: panel of 391 kinases (Homo sapiens, UniProt Q16513); settings: PKN2/PRK2, MK-28 1 µM, ATP 1 µM
[16] = target: panel of 391 kinases (Homo sapiens, UniProt O94806); settings: PKCnu/PRKD3, MK-28 1 µM, ATP 1 µM
[17] = target: panel of 391 kinases (Homo sapiens, UniProt O60285); settings: ARK5/NUAK1, MK-28 1 µM, ATP 1 µM
[18] = target: panel of 391 kinases (Homo sapiens, UniProt Q15120); settings: kinase PDK3/PDHK3, compound at 1 µM, single dose in duplicates, 1 µM ATP
[19] = target: panel of 391 kinases (Homo sapiens, UniProt P24723); settings: PKCeta, MK-28 1 µM, ATP 1 µM
[20] = target: panel of 391 kinases (Homo sapiens, UniProt Q15835); settings: GRK1, MK-28 1 µM, ATP 1 µM
[21] = target: panel of 391 kinases (Homo sapiens, UniProt P36507); settings: MEK2, MK-28 1 µM, ATP 1 µM
[22] = target: panel of 391 kinases (Homo sapiens, UniProt P42680); settings: TEC, MK-28 1 µM, ATP 1 µM
[23] = target: panel of 391 kinases (Homo sapiens, UniProt Q9UEE5); settings: DRAK1/STK17A, MK-28 1 µM, ATP 1 µM
[24] = target: panel of 391 kinases (Homo sapiens, UniProt Q9Y572); settings: RIPK3, MK-28 1 µM, ATP 1 µM
[25] = target: panel of 391 kinases (Homo sapiens, UniProt Q9Y6E0); settings: MST3/STK24, MK-28 1 µM, ATP 1 µM
[26] = target: panel of 391 kinases (Homo sapiens, UniProt Q9H422); settings: HIPK3, MK-28 1 µM, ATP 1 µM
[27] = read-out: % Enzyme Activity (relative to DMSO controls)

In the case of `CN(/N=C\c1ccc(O)c(O)c1)c1nc(-c2ccccc2)cc(-c2ccccc2)n1` [MK-28], the “% Enzyme Activity (relative to DMSO controls)” value [1] is reported as 96.28%, the remaining activity at 1 µM [1, 27] is reported as 96.3% and the “% Enzyme Activity (relative to DMSO controls)” value [2] is reported as 100.80%. For the same compound, the remaining activity at 1 µM [2, 27] was 101%, the “% Enzyme Activity (relative to DMSO controls)” value [3] was 94.11% and the remaining activity at 1 µM [3, 27] was 95.6%. The “% Enzyme Activity (relative to DMSO controls)” value [4] was 98.84%, the remaining activity at 1 µM [4, 27] was 99% and the “% Enzyme Activity (relative to DMSO controls)” value [5] was 79.78%. The remaining activity at 1 µM [5, 27] was 81.3%, the “% Enzyme Activity (relative to DMSO controls)” value [6] was 99.92% and the remaining activity at 1 µM [6, 27] was 100%. For the same compound, the “% Enzyme Activity (relative to DMSO controls)” value [7] was 84.83%, the remaining activity at 1 µM [7, 27] was 88.2% and the “% Enzyme Activity (relative to DMSO controls)” value [8] was 114.65%. The remaining activity at 1 µM [8, 27] was 116%, the “% Enzyme Activity (relative to DMSO controls)” value [9] was 82.73% and the remaining activity at 1 µM [9, 27] was 82.8%. For the same compound, the “% Enzyme Activity (relative to DMSO controls)” value [10] was 105.55%, the remaining activity at 1 µM [10, 27] was 109% and the “% Enzyme Activity (relative to DMSO controls)” value [11] was 104.21%. For the same compound, the remaining activity at 1 µM [11, 27] was 106%, the “% Enzyme Activity (relative to DMSO controls)” value [12] was 100.79% and the remaining activity at 1 µM [12, 27] was 102%. The “% Enzyme Activity (relative to DMSO controls)” value [13] was 90.38%, the remaining activity at 1 µM [13, 27] was 97.4% and the “% Enzyme Activity (relative to DMSO controls)” value [14] was 101.97%. The remaining activity at 1 µM [14, 27] was 105%, the “% Enzyme Activity (relative to DMSO controls)” value [15] was 111.91% and the remaining activity at 1 µM [15, 27] was 115%. For the same compound, the “% Enzyme Activity (relative to DMSO controls)” value [16] was 97.83%, the remaining activity at 1 µM [16, 27] was 98.1% and the “% Enzyme Activity (relative to DMSO controls)” value [17] was 91.19%. For the same compound, the remaining activity at 1 µM [17, 27] was 93.8%, the “% Enzyme Activity (relative to DMSO controls)” value [18] was 102.25% and the remaining activity at 1 µM [18, 27] was 105%. For the same compound, the “% Enzyme Activity (relative to DMSO controls)” value [19] was 98.39%, the remaining activity at 1 µM [19, 27] was 101% and the “% Enzyme Activity (relative to DMSO controls)” value [20] was 96.61%. The remaining activity at 1 µM [20, 27] was 102%, the “% Enzyme Activity (relative to DMSO controls)” value [21] was 98.80% and the remaining activity at 1 µM [21, 27] was 99.9%. For the same compound, the “% Enzyme Activity (relative to DMSO controls)” value [22] was 100.49%, the remaining activity at 1 µM [22, 27] was 101% and the “% Enzyme Activity (relative to DMSO controls)” value [23] was 99.69%. The remaining activity at 1 µM [23, 27] was 102%, the “% Enzyme Activity (relative to DMSO controls)” value [24] was 100.16% and the remaining activity at 1 µM [24, 27] was 101%. For the same compound, the “% Enzyme Activity (relative to DMSO controls)” value [25] was 121.45%, the remaining activity at 1 µM [25, 27] was 122% and the “% Enzyme Activity (relative to DMSO controls)” value [26] was 104.43%. For the same compound, the remaining activity at 1 µM [26, 27] was 105%.
